Like-named read-outs stand apart in the source and are kept apart here.

Assay [1] concerns the target T1, DPP8 (dipeptidyl peptidase VIII) (Homo sapiens, UniProt Q6V1X1).
T1 construct: made in house
Particulars: from previous works; cited from earlier work.

Assay [2] has as its target T2, DPP4 (dipeptidyl peptidase IV) purified from human seminal plasma (Homo sapiens, UniProt P27487).
T2 construct: DPP4 (dipeptidyl peptidase IV) was purified from human seminal plasma; from tissue; host or cells: human seminal plasma
Kind of assay: In vitro inhibition assay (IC50), DPP4, substrate Ala-Pro-pNA. Particulars: for IC50: 25 µM Ala-Pro-pNA, pH 7.4, 37 °C; for SI(DPP4/FAP): selectivity index = IC50(DPP4)/IC50(FAP). The class given is biochemical. As to the method:
(§1) rhFAP (recombinant human fibroblast activation protein), DPP8 (dipeptidyl peptidase VIII) and DPP9 (dipeptidyl peptidase IX) were expressed and purified as described previously. DPP4 (dipeptidyl peptidase IV) was purified from human seminal plasma as described previously. Human recombinant PREP (prolylendopeptidase) was expressed and purified as described before.
(§2) All enzymatic activities were determined kinetically for 15 min at 37 °C by measuring initial velocities of AMC release (λex = 380 nm and λem = 465 nm) or pNA release (405 nm) from the substrates mentioned above with an Infinite 200 plate reader from Tecan Group Ltd. (Männedorf, Switzerland). The Magellan software was used to process the data, and data fitting was performed using a non-linear fitting model in Grafit 7.4. All IC50 measurements were carried out in triplicate with at least eight different inhibitor concentrations tested.

Assay [3] has as its target T1, DPP8 (dipeptidyl peptidase VIII). As to the kind of experiment: In vitro inhibition assay (IC50), DPP8, substrate Ala-Pro-pNA. Particulars: for IC50: 300 µM Ala-Pro-pNA, pH 7.4, 37 °C. The class given is biochemical. The method, then:
as §1, §2

Assay [4] has as its target T3, Human recombinant PREP (prolylendopeptidase) (Homo sapiens, UniProt P48147).
T3 construct: made in house
T3 sequence (P48147 1-710): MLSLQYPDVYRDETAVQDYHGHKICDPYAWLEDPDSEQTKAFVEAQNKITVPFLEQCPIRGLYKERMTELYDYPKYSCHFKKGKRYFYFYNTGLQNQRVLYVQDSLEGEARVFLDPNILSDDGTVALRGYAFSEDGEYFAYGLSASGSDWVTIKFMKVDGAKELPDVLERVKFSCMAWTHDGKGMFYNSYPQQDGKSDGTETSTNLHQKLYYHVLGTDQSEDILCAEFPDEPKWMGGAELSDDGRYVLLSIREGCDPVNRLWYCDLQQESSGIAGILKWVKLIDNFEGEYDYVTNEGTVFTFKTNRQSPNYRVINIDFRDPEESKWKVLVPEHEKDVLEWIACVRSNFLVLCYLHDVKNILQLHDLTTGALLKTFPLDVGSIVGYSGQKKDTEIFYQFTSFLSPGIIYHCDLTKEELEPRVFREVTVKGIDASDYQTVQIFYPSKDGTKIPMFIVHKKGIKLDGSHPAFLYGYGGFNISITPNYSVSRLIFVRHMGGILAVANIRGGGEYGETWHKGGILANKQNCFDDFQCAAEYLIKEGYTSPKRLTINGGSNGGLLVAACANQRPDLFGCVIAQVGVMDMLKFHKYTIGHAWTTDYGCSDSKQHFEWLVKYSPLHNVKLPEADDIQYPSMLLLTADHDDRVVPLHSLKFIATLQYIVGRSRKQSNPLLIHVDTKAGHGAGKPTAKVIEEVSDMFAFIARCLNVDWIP
As to the kind of experiment: In vitro inhibition assay (IC50), PREP, substrate N-succinyl-Gly-Pro-AMC. It is filed as biochemical. Particulars: for IC50: 250 µM N-succinyl-Gly-Pro-AMC, pH 7.4, 37 °C; for SI(PREP/FAP): selectivity index = IC50(PREP)/IC50(FAP). The method, then: as §1
(§3) IC50 measurements for FAP and PREP were carried out as described before. […] For PREP, N-succinyl-Gly-Pro-AMC (Bachem) at a final concentration of 250 µM at pH 7.4 in 0.1 M K-phosphate, 1 mM EDTA, 1 mM DTT and 1 mg/mL BSA buffer was used.
as §2

Assay [5] has as its target T4, rhFAP (recombinant human fibroblast activation protein) (Homo sapiens, UniProt Q12884).
T4 construct: made in house
T4 sequence (Q12884 1-760): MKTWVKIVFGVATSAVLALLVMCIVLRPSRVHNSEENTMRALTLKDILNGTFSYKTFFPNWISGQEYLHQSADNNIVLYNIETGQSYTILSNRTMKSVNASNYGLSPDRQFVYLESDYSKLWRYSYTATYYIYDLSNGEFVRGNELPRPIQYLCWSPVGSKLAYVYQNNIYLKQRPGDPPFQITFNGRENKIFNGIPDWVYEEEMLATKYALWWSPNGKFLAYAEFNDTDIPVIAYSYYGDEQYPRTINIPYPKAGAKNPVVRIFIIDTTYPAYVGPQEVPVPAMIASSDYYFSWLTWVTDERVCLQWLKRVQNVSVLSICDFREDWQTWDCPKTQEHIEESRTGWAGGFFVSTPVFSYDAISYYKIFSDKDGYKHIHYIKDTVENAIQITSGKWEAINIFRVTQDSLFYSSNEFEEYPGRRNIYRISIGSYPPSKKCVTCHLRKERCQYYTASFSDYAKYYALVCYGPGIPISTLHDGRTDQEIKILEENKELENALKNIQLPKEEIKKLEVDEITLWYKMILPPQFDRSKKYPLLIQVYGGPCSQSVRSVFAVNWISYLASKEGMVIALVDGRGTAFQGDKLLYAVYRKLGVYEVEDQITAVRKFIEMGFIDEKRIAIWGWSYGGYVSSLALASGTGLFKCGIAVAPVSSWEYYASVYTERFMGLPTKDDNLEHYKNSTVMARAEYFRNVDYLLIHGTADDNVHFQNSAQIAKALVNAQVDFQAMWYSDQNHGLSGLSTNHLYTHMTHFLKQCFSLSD
As to the kind of experiment: In vitro inhibition assay (IC50), FAP, substrate Z-Gly-Pro-AMC. The conditions noted are these: for IC50 values for FAP (in words): summary statement on Table 3. The class given is biochemical. The method, then: as §1, §3, §2

Assay [6] concerns the target T5, DPP9 (dipeptidyl peptidase IX) (Homo sapiens, UniProt Q86TI2).
T5 construct: made in house
As to the kind of experiment: In vitro inhibition assay (IC50), DPP9, substrate Ala-Pro-pNA. The class given is biochemical. The conditions noted are these: for IC50: 150 µM Ala-Pro-pNA, pH 7.4, 37 °C; for SI(DPP9/FAP): selectivity index = IC50(DPP9)/IC50(FAP). As to the method: as §1, §2

The next assay relates to FAP. Particulars: different assay conditions; cited from earlier work.

T1 sequence (Q6V1X1 whole entry, species assumed): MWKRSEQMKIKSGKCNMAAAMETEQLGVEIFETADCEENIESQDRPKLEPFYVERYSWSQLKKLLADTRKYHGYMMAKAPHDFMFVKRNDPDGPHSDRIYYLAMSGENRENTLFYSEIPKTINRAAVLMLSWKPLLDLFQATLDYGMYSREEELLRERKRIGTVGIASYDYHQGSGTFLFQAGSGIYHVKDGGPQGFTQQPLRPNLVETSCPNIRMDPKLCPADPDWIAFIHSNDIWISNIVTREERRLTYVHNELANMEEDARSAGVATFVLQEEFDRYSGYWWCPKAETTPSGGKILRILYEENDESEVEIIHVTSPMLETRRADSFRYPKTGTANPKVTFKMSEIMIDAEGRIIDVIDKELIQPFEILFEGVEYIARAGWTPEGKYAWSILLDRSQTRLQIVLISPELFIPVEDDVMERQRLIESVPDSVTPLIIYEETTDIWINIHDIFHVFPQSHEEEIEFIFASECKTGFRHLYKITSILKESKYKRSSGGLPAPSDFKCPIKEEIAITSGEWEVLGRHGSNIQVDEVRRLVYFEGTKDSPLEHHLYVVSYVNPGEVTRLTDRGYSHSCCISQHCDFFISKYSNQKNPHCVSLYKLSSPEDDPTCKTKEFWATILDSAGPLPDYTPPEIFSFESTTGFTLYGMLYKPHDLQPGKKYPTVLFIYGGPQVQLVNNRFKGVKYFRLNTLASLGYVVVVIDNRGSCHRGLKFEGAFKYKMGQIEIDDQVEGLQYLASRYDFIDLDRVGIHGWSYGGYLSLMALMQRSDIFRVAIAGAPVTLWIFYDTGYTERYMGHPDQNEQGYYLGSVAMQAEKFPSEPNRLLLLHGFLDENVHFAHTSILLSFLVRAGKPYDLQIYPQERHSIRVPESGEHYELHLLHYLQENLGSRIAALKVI
T2 sequence (P27487 whole entry): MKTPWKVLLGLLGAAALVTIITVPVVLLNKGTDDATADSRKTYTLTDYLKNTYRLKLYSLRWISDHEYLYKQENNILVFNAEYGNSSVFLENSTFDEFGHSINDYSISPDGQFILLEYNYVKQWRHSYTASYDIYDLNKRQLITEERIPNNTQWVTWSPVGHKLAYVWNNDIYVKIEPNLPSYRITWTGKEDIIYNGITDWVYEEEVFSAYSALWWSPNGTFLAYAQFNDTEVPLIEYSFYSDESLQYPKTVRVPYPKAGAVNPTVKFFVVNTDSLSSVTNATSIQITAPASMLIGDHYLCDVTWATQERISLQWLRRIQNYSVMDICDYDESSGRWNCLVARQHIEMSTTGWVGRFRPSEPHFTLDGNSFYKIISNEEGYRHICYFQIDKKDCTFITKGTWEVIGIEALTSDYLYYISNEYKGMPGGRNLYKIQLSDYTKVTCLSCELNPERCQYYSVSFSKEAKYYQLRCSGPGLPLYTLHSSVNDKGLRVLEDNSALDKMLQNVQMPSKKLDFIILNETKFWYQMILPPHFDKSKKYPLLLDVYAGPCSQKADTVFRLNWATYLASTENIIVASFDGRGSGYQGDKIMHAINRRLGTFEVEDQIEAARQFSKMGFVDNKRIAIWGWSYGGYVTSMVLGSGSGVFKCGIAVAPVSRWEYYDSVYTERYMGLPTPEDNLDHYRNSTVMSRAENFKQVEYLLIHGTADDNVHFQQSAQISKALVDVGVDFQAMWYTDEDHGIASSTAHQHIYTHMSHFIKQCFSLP
T5 sequence (Q86TI2 whole entry, species assumed): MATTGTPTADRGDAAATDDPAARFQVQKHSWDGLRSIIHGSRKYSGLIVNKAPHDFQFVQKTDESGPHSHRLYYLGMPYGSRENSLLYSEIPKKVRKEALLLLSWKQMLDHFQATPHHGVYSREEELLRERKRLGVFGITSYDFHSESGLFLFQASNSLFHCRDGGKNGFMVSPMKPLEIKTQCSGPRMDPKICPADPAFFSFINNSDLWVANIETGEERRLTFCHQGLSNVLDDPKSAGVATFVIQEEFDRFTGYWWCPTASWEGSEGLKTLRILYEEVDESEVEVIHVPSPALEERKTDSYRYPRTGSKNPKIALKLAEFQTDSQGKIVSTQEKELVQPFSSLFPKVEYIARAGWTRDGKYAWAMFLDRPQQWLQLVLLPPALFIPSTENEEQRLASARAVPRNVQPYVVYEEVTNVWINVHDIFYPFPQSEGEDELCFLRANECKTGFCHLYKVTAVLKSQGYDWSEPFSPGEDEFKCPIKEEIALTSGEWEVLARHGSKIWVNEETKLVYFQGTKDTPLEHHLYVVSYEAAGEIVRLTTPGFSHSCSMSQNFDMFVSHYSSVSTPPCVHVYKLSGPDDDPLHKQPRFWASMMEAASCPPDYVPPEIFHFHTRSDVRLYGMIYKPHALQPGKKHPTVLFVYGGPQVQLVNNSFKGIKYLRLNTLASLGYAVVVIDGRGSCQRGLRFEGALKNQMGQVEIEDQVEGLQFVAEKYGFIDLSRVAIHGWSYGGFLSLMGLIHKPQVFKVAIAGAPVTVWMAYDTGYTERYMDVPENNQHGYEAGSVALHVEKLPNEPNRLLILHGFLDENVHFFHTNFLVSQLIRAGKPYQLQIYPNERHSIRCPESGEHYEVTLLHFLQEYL

A word on the IC50: it is the midpoint of a concentration-inhibition curve. In the case of `N#C[C@@H]1CC(F)(F)CN1C(=O)CNC(=O)c1ccnc2ccccc12` [UAMC-1110], in assay [1], the IC50 is greater than 10000 nM.
On to `N#C[C@@H]1CC(F)(F)CN1C(=O)CNC(=O)c1ccnc2ccc(OCCCCNC(=O)CC[C@H](NC(=O)CN3CCN(CC(=O)O)CCN(CC(=O)O)CCN(CC(=O)O)CC3)C(=O)NCCCCOc3ccc4nccc(C(=O)NCC(=O)N5CC(F)(F)C[C@H]5C#N)c4c3)cc12` [DO3A.Glu.(FAPi)2, 2,2′,2″-(10-(2-(((S)-1,5-bis((4-((4-((2-((S)-2-Cyano-4,4-difluoropyrrolidin-1-yl)-2-oxoethyl)-carbamoyl)quinolin-6-yl)oxy)butyl)amino)-1,5-dioxopentan-2-yl)amino)-2-oxoethyl)-1,4,7,10-tetraazacyclododecane-1,4,7-triyl)triacetic acid], for which, in assay [2], the IC50 came to 540 ± 60 nM and the “SI(DPP4/FAP)” value was 900. The IC50 in assay [3] is 1030 ± 180 nM. In addition, in assay [3] (selectivity index = IC50(DPP8)/IC50(FAP)), the “SI(DPP8/FAP)” value is reported as 1717. Further, in assay [4], the half-inhibitory concentration (IC50) turned out to be 1000 ± 140 nM and the “SI(PREP/FAP)” value came to 1667. Also, the “IC50 values for FAP (in words)” value in assay [5] is “subnanomolar”. In addition, in assay [6], the IC50 amounted to 950 ± 110 nM and the “SI(DPP9/FAP)” value worked out at 1583.
As for `N#C[C@@H]1CC(F)(F)CN1C(=O)CNC(=O)c1ccnc2ccc(OCCCCNC(=O)CC[C@H](NC(=O)CCC(C(=O)O)N3CCN(CC(=O)O)CCN(CC(=O)O)CCN(CC(=O)O)CC3)C(=O)NCCCCOc3ccc4nccc(C(=O)NCC(=O)N5CC(F)(F)C[C@H]5C#N)c4c3)cc12` (stereo partly drawn) [DOTAGA.Glu.(FAPi)2, 2,2′,2″-(10-(4-(((S)-1,5-bis((4-((4-((2-((S)-2-Cyano-4,4-difluoropyrrolidin-1-yl)-2-oxoethyl)-carbamoyl)quinolin-6-yl)oxy)butyl)amino)-1,5-dioxopentan-2-yl)amino)-1-carboxy-4-oxobutyl)-1,4,7,10-tetraazacyclododecane-1,4,7-triyl)triacetic acid], the IC50 in assay [2] turned out to be 1190 ± 80 nM; in assay [3], 29 ± 4 nM; in assay [4] it was 590 ± 100 nM; in assay [5] (50 µM Z-Gly-Pro-AMC, pH 8.0, 37 °C, triplicate), 0.26 ± 0.04 nM; in assay [6] it was 83 ± 1.5 nM. Further, the “SI(DPP4/FAP)” value in assay [2] is recorded as 4577. Further, the “SI(PREP/FAP)” value in assay [4] was 2269. The “IC50 values for FAP (in words)” value in assay [5] is “subnanomolar”. In addition, the “SI(DPP9/FAP)” value in assay [6] is 319.
With `N#C[C@@H]1CC(F)(F)CN1C(=O)CNC(=O)c1ccnc2c(NC(=O)CCC(=O)NCCCC[C@H](NC(=O)CCC(=O)Nc3cccc4c(C(=O)NCC(=O)N5CC(F)(F)C[C@H]5C#N)ccnc34)C(=O)NCCNC(=O)CC[C@H](C(=O)O)N3CCN(CC(=O)O)CCN(CC(=O)O)CCN(CC(=O)O)CC3)cccc12` [BiOncoFAP-DOTAGA], the IC50 with FAP was 0.17 nM.

The values above are taken from publication PMC10047490, “Novel Generation of FAP Inhibitor-Based Homodimers for Improved Application in Radiotheranostics” (Cancers, 2023).
